The values that follow come from patent US20030087316A1, “Diagnostic markers of liver dysfunction” (priority 2001, published 2003).

The subject of assay [1] is all of the enzymes examined. In words: General serine proteinase inhibitors on selected proteinases (summary over the enzymes). It counts as biochemical. The note with it: Table 2; benzamidine 50 mM, Futhan 0.1 mg/ml. Here is the method:
(§1) The peptidase activity in plasma samples or of the purified enzymes were routinely determined at 37° C. in a 96-well plate. Each well contained 0.5 mM substrate in 100 μl of Tris-buffered saline (TBS)-EDTA buffer (50 mM Tris/150 mM NaCl/10 mM EDTA, pH 7.8) and the reaction was monitored using a microplate reader (Titertek Multiscan, Labsystems, Needham Heights, Mass.).
(§2) The enzymes C1s (100 nM), plasm in (100 nM), thrombin (100 nM), plasma kallikrein (20 nM), β-FXIIa (100 nM), trypsin (16 nM) or LTR EDTA plasma samples were incubated for 60 min at 4° C. with TBS-EDTA buffer containing either LBTI (1 mg/ml), SBTI (I mg/ml), aprotinin (0.075 mg/ml), benzamidine (50 mM), or Futhan (0.1 mg/ml), before mixing with the substrate. EDTA plasma samples from LTR were diluted 10 or 20-fold with TBS-EDTA. The chromogenic substrate AGLTR-pNA was used for all enzymes and LTR samples except C1s where the substrate S2288 was used. Based on the initial rate of increase in OD at 405 nm, the residual free enzyme level was calculated and expressed as a percentage of total activity without inhibitor added.

Assay [2] addresses T1, plasma kallikrein (Homo sapiens, UniProt P03952).
T1 construct: The light chain of kallikrein contains the enzymatic domain; purchased Calbiochem-Novabiochem Corp (La Jolla, Calif.)
In words: Peptidase (amidolytic) activity of purified plasma kallikrein, chromogenic substrate, OD 405 nm. It counts as biochemical. The conditions noted are these: Table 2, plasma kallikrein 20 nM, substrate AGLTR-pNA, 60 min at 4° C. with LBTI 1 mg/ml, SBTI I mg/ml, aprotinin 0.075 mg/ml, benzamidine 50 mM or Futhan 0.1 mg/ml. The method, then:
as §1
(§3) […] EDTA plasma samples from LTR were diluted 10 or 20-fold with TBS-EDTA. The chromogenic substrate AGLTR-pNA was used for all enzymes and LTR samples except C1s where the substrate S2288 was used. Based on the initial rate of increase in OD at 405 nm, the residual free enzyme level was calculated and expressed as a percentage of total activity without inhibitor added.
(§4) Ten-fold diluted normal EDTA plasma was added to each enzyme. […] LTR samples were 10 or 20-fold diluted with TBS-EDTA. The chromogenic substrate AGLTR-pNA was used for all enzymes and LTP samples except C1s where the substrate S2288 was used. Based on the initial rate of increase in OD at 405 nm, the residual free enzyme was calculated and expressed as a percentage of total activity determined without inhibitor added.

Assay [3] addresses T2, C1s (Homo sapiens, UniProt P09871).
T2 construct: purchased Advanced Research Technologies (San Diego, Calif.)
T2 sequence (P09871 438-688 limits assumed): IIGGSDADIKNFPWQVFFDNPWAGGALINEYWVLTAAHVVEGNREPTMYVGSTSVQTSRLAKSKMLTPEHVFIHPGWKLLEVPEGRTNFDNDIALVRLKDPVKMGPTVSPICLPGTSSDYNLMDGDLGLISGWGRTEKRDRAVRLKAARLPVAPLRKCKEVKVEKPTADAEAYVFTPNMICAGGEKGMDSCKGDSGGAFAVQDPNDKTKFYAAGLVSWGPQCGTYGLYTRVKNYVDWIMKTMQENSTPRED
T2 sequence (P09871 16-437 partner limits assumed): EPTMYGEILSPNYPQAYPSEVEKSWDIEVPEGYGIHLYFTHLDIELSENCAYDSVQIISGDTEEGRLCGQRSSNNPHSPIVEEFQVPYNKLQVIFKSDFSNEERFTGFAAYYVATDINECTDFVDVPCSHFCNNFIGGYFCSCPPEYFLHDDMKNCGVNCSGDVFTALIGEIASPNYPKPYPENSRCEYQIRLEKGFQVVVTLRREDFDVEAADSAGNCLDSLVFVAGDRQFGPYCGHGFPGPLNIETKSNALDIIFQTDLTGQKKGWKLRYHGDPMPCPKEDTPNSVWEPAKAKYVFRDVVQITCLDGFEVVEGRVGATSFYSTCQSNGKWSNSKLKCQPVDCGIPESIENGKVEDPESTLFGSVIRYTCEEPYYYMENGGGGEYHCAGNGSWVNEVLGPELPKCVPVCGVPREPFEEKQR
As to the kind of experiment: Peptidase (amidolytic) activity of purified C1s, chromogenic substrate, 96-well plate, OD 405 nm. It counts as biochemical. The conditions noted are these: Table 2, C1s 100 nM, substrate S2288, 60 min at 4° C. with LBTI 1 mg/ml, SBTI I mg/ml, aprotinin 0.075 mg/ml, benzamidine 50 mM or Futhan 0.1 mg/ml, % of total activity without inhibitor. Here is the method: as §1, §2
(§5) Ten-fold diluted normal EDTA plasma was added to each enzyme. The enzymes C1s (100 nM), plasmin (100 nM), thrombin (100 nM), plasma kallikrein (20 nM), β-FXIIa (100 nM), trypsin (16 nM) or LTR EDTA plasma samples were incubated for 60 min at 4° C. with TBS-EDTA buffer containing either C1INH (40 μg/ml), bdellin (50 μg/ml), hirudin (50 U/ml), PPACK 11(10 μM), or CTI (100 μg/ml), before adding the substrate. LTR samples were 10 or 20-fold diluted with TBS-EDTA. The chromogenic substrate AGLTR-pNA was used for all enzymes and LTP samples except C1s where the substrate S2288 was used. Based on the initial rate of increase in OD at 405 nm, the residual free enzyme was calculated and expressed as a percentage of total activity determined without inhibitor added.

Assay [4] relates to trypsin. In words: Peptidase (amidolytic) activity of purified trypsin, chromogenic substrate, OD 405 nm. The note with it: Table 2; trypsin 16 nM, substrate AGLTR-pNA; 60 min at 4° C. with LBTI 1 mg/ml, SBTI I mg/ml, aprotinin 0.075 mg/ml, benzamidine 50 mM or Futhan 0.1 mg/ml. It counts as biochemical. Here is the method:
as §1, §2

Assay [5] deals with proteinase(s) in EDTA plasma from LTR (kallikrein-like peptidase). In words: Peptidase activity in EDTA plasma from liver transplant recipients (LTR), chromogenic substrate, OD 405 nm. The conditions noted are these: Table 2, substrate AGLTR-pNA, 60 min at 4° C. with LBTI 1 mg/ml, SBTI I mg/ml, aprotinin 0.075 mg/ml, benzamidine 50 mM or Futhan 0.1 mg/ml; for % Residual activity, LTR 1: LTR 1 EDTA plasma diluted 10 or 20-fold; for % Residual activity, LTR 2: LTR 2 EDTA plasma diluted 10 or 20-fold; for % Residual activity, LTR 3: LTR 3 EDTA plasma diluted 10 or 20-fold. It counts as biochemical, human. The method, then: Blood samples were drawn into 5 ml EDTA tubes (Venoject; Terumo Corp., Elkton, Md.). The plasma was collected immediately by centrifugation at 2,000×g for 15 min at 4° C. The plasma samples were either processed immediately for analysis or stored at −70° C. Frozen samples were thawed at 4° C. prior to analysis.
as §1, §2, §5

Assay [6] deals with T3, plasmin (Homo sapiens, UniProt P00747).
T3 construct: purchased Calbiochem-Novabiochem Corp (La Jolla, Calif.)
T3 sequence (P00747 581-810 limits assumed, species assumed): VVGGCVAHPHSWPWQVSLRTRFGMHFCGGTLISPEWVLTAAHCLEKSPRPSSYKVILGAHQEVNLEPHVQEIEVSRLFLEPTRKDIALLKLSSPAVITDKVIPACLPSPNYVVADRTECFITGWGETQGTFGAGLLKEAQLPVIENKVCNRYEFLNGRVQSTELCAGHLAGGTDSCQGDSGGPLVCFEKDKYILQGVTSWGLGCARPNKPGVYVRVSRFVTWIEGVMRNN
T3 sequence (P00747 97-580 partner limits assumed, species assumed): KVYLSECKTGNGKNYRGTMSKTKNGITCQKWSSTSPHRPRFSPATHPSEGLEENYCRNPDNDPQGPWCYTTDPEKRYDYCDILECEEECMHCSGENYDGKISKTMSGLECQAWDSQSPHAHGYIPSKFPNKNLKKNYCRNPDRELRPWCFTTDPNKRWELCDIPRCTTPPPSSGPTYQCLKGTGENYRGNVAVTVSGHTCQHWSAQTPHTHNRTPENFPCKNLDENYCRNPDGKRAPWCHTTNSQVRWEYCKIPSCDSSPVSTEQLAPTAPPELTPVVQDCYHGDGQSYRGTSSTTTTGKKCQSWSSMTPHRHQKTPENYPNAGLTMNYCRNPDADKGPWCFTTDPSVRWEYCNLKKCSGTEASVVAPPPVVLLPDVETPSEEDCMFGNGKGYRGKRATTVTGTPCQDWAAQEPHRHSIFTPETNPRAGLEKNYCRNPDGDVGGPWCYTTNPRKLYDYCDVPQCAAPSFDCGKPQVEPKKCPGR
As to the kind of experiment: Peptidase (amidolytic) activity of purified plasmin, chromogenic substrate, OD 405 nm. It counts as biochemical. The note with it: Table 2, plasmin 100 nM, substrate AGLTR-pNA, 60 min at 4° C. with LBTI 1 mg/ml, SBTI I mg/ml, aprotinin 0.075 mg/ml, benzamidine 50 mM or Futhan 0.1 mg/ml. The method, then:
as §1, §2, §5

Assay [7] concerns the target T4, β-Factor XIIa (β-FXIIa) (Homo sapiens, UniProt P00748).
T4 construct: β-Factor XIIa (β-FXIIa) was kindly provided by Dr. Mary J. Heeb; gift of Dr. Mary J. Heeb, The Scripps Research Institute
In words: Peptidase (amidolytic) activity of purified β-FXIIa, chromogenic substrate, OD 405 nm. It counts as biochemical. The conditions noted are these: Table 2, β-FXIIa 100 nM, substrate AGLTR-pNA, 60 min at 4° C. with LBTI 1 mg/ml, SBTI I mg/ml, aprotinin 0.075 mg/ml, benzamidine 50 mM or Futhan 0.1 mg/ml. The method, then: as §1, §3, §4

In assay [8] the target is T5, thrombin (Homo sapiens, UniProt P00734).
T5 construct: purchased Calbiochem-Novabiochem Corp (La Jolla, Calif.)
As to the kind of experiment: Peptidase (amidolytic) activity of purified thrombin, chromogenic substrate, OD 405 nm. It counts as biochemical. The conditions noted are these: Table 2, thrombin 100 nM, substrate AGLTR-pNA, 60 min at 4° C. with LBTI 1 mg/ml, SBTI I mg/ml, aprotinin 0.075 mg/ml, benzamidine 50 mM or Futhan 0.1 mg/ml.

Assay [9] relates to complement (three known pathways). The conditions noted are these: defined levels of Futhan in combination with EDTA; cited from earlier work.

T1 sequence (P03952 391-638 limits assumed): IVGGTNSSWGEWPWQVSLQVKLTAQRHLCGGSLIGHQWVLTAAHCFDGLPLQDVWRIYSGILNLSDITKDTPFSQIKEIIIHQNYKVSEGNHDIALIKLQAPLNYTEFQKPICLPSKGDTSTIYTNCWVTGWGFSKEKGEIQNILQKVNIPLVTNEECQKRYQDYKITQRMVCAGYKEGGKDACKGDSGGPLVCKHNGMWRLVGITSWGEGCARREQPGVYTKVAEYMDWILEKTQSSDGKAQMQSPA
T1 sequence (P03952 20-390 partner limits assumed): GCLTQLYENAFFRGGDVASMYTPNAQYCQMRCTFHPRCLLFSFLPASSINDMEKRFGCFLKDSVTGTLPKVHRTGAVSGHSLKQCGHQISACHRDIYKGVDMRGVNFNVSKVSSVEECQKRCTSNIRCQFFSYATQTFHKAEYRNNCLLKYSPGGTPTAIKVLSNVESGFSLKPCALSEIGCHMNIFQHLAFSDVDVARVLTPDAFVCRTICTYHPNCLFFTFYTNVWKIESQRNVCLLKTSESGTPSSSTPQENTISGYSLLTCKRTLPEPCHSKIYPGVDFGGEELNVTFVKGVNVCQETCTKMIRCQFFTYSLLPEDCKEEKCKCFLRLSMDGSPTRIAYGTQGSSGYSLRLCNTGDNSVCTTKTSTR
T4 sequence (P00748 373-615 limits assumed, other chains not shown): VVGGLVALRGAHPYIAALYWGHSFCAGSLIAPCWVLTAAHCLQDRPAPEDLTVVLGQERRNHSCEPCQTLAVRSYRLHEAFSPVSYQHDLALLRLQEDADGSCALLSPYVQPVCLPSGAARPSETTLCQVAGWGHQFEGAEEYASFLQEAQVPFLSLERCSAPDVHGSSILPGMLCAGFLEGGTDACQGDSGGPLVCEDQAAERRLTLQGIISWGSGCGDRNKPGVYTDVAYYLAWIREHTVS

Consider `N=C(N)c1ccccc1` [Benzamidine, benzamidine], for which the “Inhibition of all of the enzymes examined, in words” value in [1] is reported as “very efficient inhibitors for all of the enzymes examined”. Also, the “% Residual activity, Plasma Kallikrein” value in assay [2] was 2.0%. In addition, the “% Residual activity, C1s” value in assay [3] was determined as 6.6%. Also, the “% Residual activity, Trypsin” value in assay [4] is listed as 5.8%. Besides, in assay [5], the “% Residual activity, LTR 1” value amounted to 0.5%; the “% Residual activity, LTR 2” value is −0.3%; the “% Residual activity, LTR 3” value was 1.5%. In addition, the “% Residual activity, Plasmin” value in assay [6] came to 3.9%. In addition, the “% Residual activity, β-FXIIa” value in assay [7] is on record as 10.9%. Moreover, the “% Residual activity, Thrombin” value in assay [8] was determined as 1.6%.

On to `N=C(N)c1ccc2cc(OC(=O)c3ccc(N=C(N)N)cc3)ccc2c1` [Futhan, nafamostat mesilate], for which, in [1], the “Inhibition of all of the enzymes examined, in words” value is recorded as “very efficient inhibitors for all of the enzymes examined”. In addition, the remaining activity at 100 µg/mL in assay [2] (read-out: % Residual activity, Plasma Kallikrein) is 1.1%; in assay [3] (read-out: % Residual activity, C1s) it was 4.6%; in assay [6] (read-out: % Residual activity, Plasmin), -1.5%; in [7] (read-out: % Residual activity, β-FXIIa), 3.8%; in [8] (read-out: % Residual activity, Thrombin), 0.8%. For the same molecule, the “% Residual activity, Trypsin” value in assay [4] is recorded as −0.5%. Besides, the “% Residual activity, LTR 1” value in assay [5] was −0.7%. Moreover, in [5], the “% Residual activity, LTR 2” value is 0.2%. In addition, the “% Residual activity, LTR 3” value in [5] is −1.1%. In addition, the “Prevention of in vitro activation of complement in plasma samples, in words” value in assay [9] is given as “can prevent the in vitro activation of complement by any of the three known pathways”.
